What follows are compounds tested on Dermatophyten und Schimmelpilze; Hefen (assay: Antimycotic in-vitro activity, serial dilution test). Conditions: 28°C, 24 h for yeasts, 96 h for dermatophytes and moulds, compared with the prior-art compound (A).
Format: cell-based
Experimental: Die in-vitro-Prüfung wurde im Reihenverdünnungstest mit Keiminokula von durchschnittlich […] Substrat durchgeführt. Als Nährmedium dienten • a) für Dermatophyten und Schimmelpilze: Sabourand's milieu d'epresive • b) für Hefen: Isotonic Sensitest-Broth von Oxid.
Die Bebrütungstemperatur betrug 28°C; Bebrütungsdauer war 24 Stunden bei Hefen und 96 Stunden bei Dermatophyten und Schimmelpilzen.

Compound	antimykotische Wirkung
CCC(C=C(C(=O)c1ccc(Cl)cc1Cl)n1ccnc1)CC [Beispiel 5]	bessere antimykotische Wirkung als die aus dem Stand der Technik bekannte Verbindung (A)
CCC(C)C=C(C(=O)c1ccc(Cl)cc1Cl)n1ccnc1 (centres unmarked) [Beispiel 6]	bessere antimykotische Wirkung als die aus dem Stand der Technik bekannte Verbindung (A)
CCCCC(C=C(C(=O)c1ccc(Cl)cc1Cl)n1ccnc1)CC (centres unmarked) [Beispiel 9]	bessere antimykotische Wirkung als die aus dem Stand der Technik bekannte Verbindung (A)
1-(2,4-Dichlorphenyl)-2-Eimidazol-1-yl)-3-(methylcyclohexen-3-yl)-2-propen-l-on [Beispiel 1]	bessere antimykotische Wirkung als die aus dem Stand der Technik bekannte Verbindung (A)
CCCC(C)C=C(C(=O)c1ccc(Cl)cc1Cl)n1ccnc1 (centres unmarked) [Beispiel 7]	bessere antimykotische Wirkung als die aus dem Stand der Technik bekannte Verbindung (A)

Source: EP0048827A1, “Substituted 2,4-dichlorophenyl-imidazolyl-vinyl ketones, processes for their preparation and antimicrobial agents containing these compounds” (BAYER AG, priority 1980, dated 1982)
